Reference: ChEMBL document CHEMBL1201862, “PubChem BioAssay data set” (2004)
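Interpolation was linear, between the two tested concentrations surrounding the appropriate level; five concentrations were tested over 48 hours in 96-well plates. GI50 is the concentration that inhibits growth by half.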 Activity calls are given as the source filed them. Cut-off read from the data, not from the text of the source: active = GI50 up to about 1.1 µM and inactive = higher.

Experiments:
Assay in all cases: NCI anticancer screen, dose series, 48 h
Malme-3M = system: Malme-3M
KM12 = system: KM12
HT-29 = system: HT-29
PC-3 = system: PC-3
HOP-62 = system: HOP-62
U-251 = system: U-251
DU-145 = system: DU-145
SK-MEL-5 = system: SK-MEL-5
UACC-62 = system: UACC-62
SF-295 = system: SF-295
NCI/ADR-RES = system: NCI/ADR-RES
K562 = system: K562
HCT-15 = system: HCT-15
SW-620 = system: SW-620
EKVX = system: EKVX
A549 = system: A549
COLO 205 = system: COLO 205
HOP-92 = system: HOP-92
MDA-N = system: MDA-N

SMILES | GI50 (Malme-3M) | GI50 (KM12) | GI50 (HT-29) | GI50 (PC-3) | GI50 (HOP-62) | GI50 (U-251) | GI50 (DU-145) | GI50 (SK-MEL-5) | GI50 (UACC-62) | GI50 (SF-295) | GI50 (NCI/ADR-RES) | GI50 (K562) | GI50 (HCT-15) [µM] | GI50 (SW-620) | GI50 (EKVX) | GI50 (A549) | GI50 (COLO 205) | GI50 (HOP-92) | GI50 (MDA-N)
CC(O[Si](C)(C)C(C)(C)C)[C@H](NC(=O)OCC(Cl)(Cl)Cl)C(=O)O (stereo partly drawn) | > 100 µM (inactive) | 56 µM (inactive) | > 100 µM (inactive) | > 100 µM (inactive) | > 100 µM (inactive) | > 100 µM (inactive) | > 100 µM (inactive) | > 100 µM (inactive) | 53.5 µM (inactive) | 51.2 µM (inactive) | > 100 µM (inactive) | > 100 µM (inactive) | > 100 | > 100 µM (inactive) | > 100 µM (inactive) | > 100 µM (inactive) | > 100 µM (inactive) |  | 
O=C1C=CC(=NNc2ccccc2)C=CC1=O | 13.4 µM (inactive) | 12.4 µM (inactive) | 13.6 µM (inactive) | 8.67 µM (inactive) | 10.8 µM (inactive) | 7.71 µM (inactive) | 18 µM (inactive) | 11.5 µM (inactive) | 12.8 µM (inactive) | 6.85 µM (inactive) | 11.6 µM (inactive) | 7.64 µM (inactive) | 5.83 | 6.58 µM (inactive) | 25.9 µM (inactive) | 10.7 µM (inactive) | 13.5 µM (inactive) | 17.5 µM (inactive) | 
Cc1ccc2nc(-c3ccc(N)c(I)c3)sc2c1 | 36.1 µM (inactive) | 5.87 µM (inactive) | 18.9 µM (inactive) | 8.49 µM (inactive) | 28.8 µM (inactive) | 26.1 µM (inactive) |  | 29.4 µM (inactive) | 32.5 µM (inactive) | 19.1 µM (inactive) | 72.3 µM (inactive) | 21.3 µM (inactive) | 6.11 | 20.9 µM (inactive) | 29 µM (inactive) | 15.2 µM (inactive) | 17.1 µM (inactive) | 20.1 µM (inactive) | 
CCOC(=O)c1c(N2CCOCC2)[nH]c(=O)c(C(c2ccc(N(C)C)cc2)c2c(O)c(C(=O)OCC)c(N3CCOCC3)[nH]c2=O)c1O | > 100 µM (inactive) | > 100 µM (inactive) | > 100 µM (inactive) | > 100 µM (inactive) | > 100 µM (inactive) | > 100 µM (inactive) | > 100 µM (inactive) | > 100 µM (inactive) | > 100 µM (inactive) | > 100 µM (inactive) | > 100 µM (inactive) | > 100 µM (inactive) | > 100 | > 100 µM (inactive) | > 100 µM (inactive) | > 100 µM (inactive) | > 100 µM (inactive) | > 100 µM (inactive) | 
O=C1CCN(CCC(F)(F)C(F)(F)C(F)(F)C(F)(F)F)C(=S)N1 | > 100 µM (inactive) | > 100 µM (inactive) | > 100 µM (inactive) |  | > 100 µM (inactive) | > 100 µM (inactive) |  | > 100 µM (inactive) | > 100 µM (inactive) | > 100 µM (inactive) |  | > 100 µM (inactive) | > 100 | > 100 µM (inactive) | > 100 µM (inactive) | > 100 µM (inactive) | > 100 µM (inactive) |  | 
CC(C)=Cc1cc(C(=O)NCCNC(=O)c2cc(C=C(C)C)nc(NC#N)n2)nc(NC#N)n1 | > 100 µM (inactive) | > 100 µM (inactive) | > 100 µM (inactive) |  | > 100 µM (inactive) | > 100 µM (inactive) |  | > 100 µM (inactive) | > 100 µM (inactive) | > 100 µM (inactive) |  | > 100 µM (inactive) | > 100 | > 100 µM (inactive) | > 100 µM (inactive) | > 100 µM (inactive) | > 100 µM (inactive) | > 100 µM (inactive) | 
CC12CCC(/C(=N/c3cc(C(F)(F)F)cc(C(F)(F)F)c3)C1=O)C2(C)C (stereo not drawn) | 33.4 µM (inactive) | 26.4 µM (inactive) | 68.5 µM (inactive) | 27.5 µM (inactive) | 39.8 µM (inactive) | 35.4 µM (inactive) | 40.6 µM (inactive) | 48.2 µM (inactive) | 31.3 µM (inactive) | 41.9 µM (inactive) | 44.3 µM (inactive) | 29.6 µM (inactive) | 29.1 | 28.1 µM (inactive) | 78.7 µM (inactive) | 31.9 µM (inactive) | 19.1 µM (inactive) |  | 
CC1OC(=O)N(CCCC=C2SCCCS2)C1=O (stereo not drawn) | > 100 µM (inactive) | > 100 µM (inactive) | > 100 µM (inactive) |  |  | > 100 µM (inactive) |  |  | > 100 µM (inactive) | > 100 µM (inactive) |  | > 100 µM (inactive) | > 100 | > 100 µM (inactive) | > 100 µM (inactive) | > 100 µM (inactive) | > 100 µM (inactive) | > 100 µM (inactive) | 
Cc1ccc(Nc2nc(=O)[nH]c(=O)[nH]2)cc1N=[N+]=[N-] | > 100 µM (inactive) | > 100 µM (inactive) | > 100 µM (inactive) |  | > 100 µM (inactive) |  | > 100 µM (inactive) | > 100 µM (inactive) | > 100 µM (inactive) | > 100 µM (inactive) | > 100 µM (inactive) | > 100 µM (inactive) | > 100 | > 100 µM (inactive) | > 100 µM (inactive) | > 100 µM (inactive) | > 100 µM (inactive) | > 100 µM (inactive) | > 100 µM (inactive)
CCOP(=O)(/C=C\n1ccc(=O)[nH]c1=O)OCC |  | > 100 µM (inactive) | > 100 µM (inactive) | > 100 µM (inactive) | > 100 µM (inactive) | > 100 µM (inactive) | > 100 µM (inactive) | > 100 µM (inactive) | > 100 µM (inactive) | > 100 µM (inactive) | > 100 µM (inactive) | > 100 µM (inactive) | > 100 | > 100 µM (inactive) | > 100 µM (inactive) | > 100 µM (inactive) | > 100 µM (inactive) |  | > 100 µM (inactive)
O=C(O)c1cc2c(cc1CC(Cc1ccccc1)C(=O)O)CCC2 (stereo not drawn) | > 100 µM (inactive) | > 100 µM (inactive) | > 100 µM (inactive) | > 100 µM (inactive) | > 100 µM (inactive) | > 100 µM (inactive) | > 100 µM (inactive) | > 100 µM (inactive) |  | > 100 µM (inactive) | > 100 µM (inactive) | > 100 µM (inactive) | > 100 | > 100 µM (inactive) | > 100 µM (inactive) | > 100 µM (inactive) | > 100 µM (inactive) |  | > 100 µM (inactive)
O=C1c2ccccc2-c2cc3ccccc3c(=O)n21 |  | > 100 µM (inactive) | > 100 µM (inactive) | > 100 µM (inactive) |  |  | > 100 µM (inactive) | > 100 µM (inactive) | > 100 µM (inactive) | > 100 µM (inactive) | > 100 µM (inactive) | > 100 µM (inactive) | > 100 | > 100 µM (inactive) | > 100 µM (inactive) | > 100 µM (inactive) | > 100 µM (inactive) |  | > 100 µM (inactive)
CC[C@H](C)[C@H](NC(=O)[C@H](Cc1ccc(O)cc1)NCC(F)(F)F)C(=O)OC(C)(C)C | 10.2 µM (inactive) | 7.78 µM (inactive) | 7.6 µM (inactive) | 6.43 µM (inactive) | 9.25 µM (inactive) | 6.85 µM (inactive) |  | 7.41 µM (inactive) | 5.69 µM (inactive) | 6.9 µM (inactive) | 11.7 µM (inactive) | 8.61 µM (inactive) | 10.5 | 9.82 µM (inactive) | 6.87 µM (inactive) | 5.41 µM (inactive) | 8.05 µM (inactive) | 8.99 µM (inactive) | 8.32 µM (inactive)
CCOC(=O)/C(C(=O)Nc1cccc(C(F)(F)F)c1)=C(/N)N1CCCC1 | > 100 µM (inactive) | > 100 µM (inactive) | > 100 µM (inactive) | > 100 µM (inactive) | 44.6 µM (inactive) | 76.9 µM (inactive) | > 100 µM (inactive) |  | > 100 µM (inactive) | 42.2 µM (inactive) | > 100 µM (inactive) | > 100 µM (inactive) | > 100 | > 100 µM (inactive) | > 100 µM (inactive) | > 100 µM (inactive) | > 100 µM (inactive) |  | > 100 µM (inactive)
COc1c(-c2nc3ccc(N4CCN(C)CC4)nc3[nH]2)cc(OC)c2[nH]c(CO)nc12 | > 100 µM (inactive) | 93.5 µM (inactive) | > 100 µM (inactive) |  | 99.5 µM (inactive) | 29.6 µM (inactive) | > 100 µM (inactive) | > 100 µM (inactive) | 82.2 µM (inactive) | > 100 µM (inactive) | > 100 µM (inactive) | 58.1 µM (inactive) | > 100 | > 100 µM (inactive) | > 100 µM (inactive) | > 100 µM (inactive) | > 100 µM (inactive) | > 100 µM (inactive) | > 100 µM (inactive)
Cc1cc2ccccc2n2c1nc1ccc(O)cc12 | > 10 µM (inactive) | > 10 µM (inactive) | > 10 µM (inactive) | > 10 µM (inactive) | > 10 µM (inactive) | 7.71 µM (inactive) | > 10 µM (inactive) | > 10 µM (inactive) | > 10 µM (inactive) | > 10 µM (inactive) | > 10 µM (inactive) | > 10 µM (inactive) | > 10 | > 10 µM (inactive) | > 10 µM (inactive) | > 10 µM (inactive) | > 10 µM (inactive) |  | 
ClCc1nc2ccccc2[nH]1 | 34.5 µM (inactive) | > 100 µM (inactive) | > 100 µM (inactive) | > 100 µM (inactive) | > 100 µM (inactive) | > 100 µM (inactive) | > 100 µM (inactive) | > 100 µM (inactive) | > 100 µM (inactive) | > 100 µM (inactive) | > 100 µM (inactive) | > 100 µM (inactive) | > 100 | > 100 µM (inactive) | > 100 µM (inactive) | > 100 µM (inactive) | > 100 µM (inactive) | > 100 µM (inactive) | 
